Test results: the NIST ThermoML archive (doi:10.1016/j.jct.2006.05.001)
Numbers after ± are expanded uncertainties.

Tests used:
[1] = refractive index (Na D-line) (dimensionless); conditions: 293.15 K; 101.33 kPa; Liquid; Standard Abbe refractometry
[2] = Liquid; for mass density: 101.33 kPa; for Normal boiling temperature: Distillation

`CCCCCCCCCCO` [decan-1-ol] showed a refractive index [1] of 1.4373 ± 0.0008, a mass density ([2]; 293.15 K) of 829.5 ± 0.94 kg/m3 and a Normal boiling temperature [2] of 230.6 ± 0.5 °C.

`CCCCCCCCCCCCO` [dodecan-1-ol] showed a mass density ([2]; 297.15 K) of 830.8 ± 1.5 kg/m3 and a Normal boiling temperature [2] of 259.4 ± 0.5 °C.

Molecule `CCCCCCCCCO` [nonan-1-ol] has a refractive index [1] of 1.4335 ± 0.0008, a mass density ([2]; 293.15 K) of 828.5 ± 1.7 kg/m3 and a Normal boiling temperature [2] of 215.2 ± 0.5 °C.

`CCCCCCCCO` [octan-1-ol] showed a refractive index [1] of 1.4292 ± 0.0008, a mass density ([2]; 298.15 K) of 826.25 ± 0.95 kg/m3 and a Normal boiling temperature [2] of 195 ± 0.5 °C.

Work on `CCC(=O)O` [propanoic acid] yielded a refractive index [1] of 1.3808 ± 0.0008, a mass density ([2]; 298.15 K) of 988.04 ± 0.53 kg/m3 and a Normal boiling temperature [2] of 141.4 ± 0.5 °C.
